Assay results reported in PMC9532703, “A novel small molecule RK-019 inhibits FGFR2-amplification gastric cancer cell proliferation and induces apoptosis in vitro and in vivo” (Frontiers in Pharmacology, 2022).

Legend:
Assay in all cases: Kinase selectivity panel
Type in all cases: biochemical
Conditions in all cases: read-out: Inhibition(%) @ 1 µM RK-019
[1] = biological target: T1, FGFR1(V561M)(h) (Homo sapiens, UniProt P11362, V561M)
T1 construct: purchased Eurofins Discovery Services (KinaseProfiler)
Method in brief: (§1)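 Single-point selectivity screen: 1 µM compound, recombinant human enzyme, in vitro ATP-site competition binding; result expressed as inhibition ratio.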

[2] = biological target: T2, TGFBR2(h) (Homo sapiens, UniProt P37173)
T2 construct: purchased Eurofins Discovery Services (KinaseProfiler)
Method in brief: as §1

[3] = biological target: T3, TTK(h) (Homo sapiens, UniProt P33981)
T3 construct: purchased Eurofins Discovery Services (KinaseProfiler)
T3 sequence (P33981 whole entry): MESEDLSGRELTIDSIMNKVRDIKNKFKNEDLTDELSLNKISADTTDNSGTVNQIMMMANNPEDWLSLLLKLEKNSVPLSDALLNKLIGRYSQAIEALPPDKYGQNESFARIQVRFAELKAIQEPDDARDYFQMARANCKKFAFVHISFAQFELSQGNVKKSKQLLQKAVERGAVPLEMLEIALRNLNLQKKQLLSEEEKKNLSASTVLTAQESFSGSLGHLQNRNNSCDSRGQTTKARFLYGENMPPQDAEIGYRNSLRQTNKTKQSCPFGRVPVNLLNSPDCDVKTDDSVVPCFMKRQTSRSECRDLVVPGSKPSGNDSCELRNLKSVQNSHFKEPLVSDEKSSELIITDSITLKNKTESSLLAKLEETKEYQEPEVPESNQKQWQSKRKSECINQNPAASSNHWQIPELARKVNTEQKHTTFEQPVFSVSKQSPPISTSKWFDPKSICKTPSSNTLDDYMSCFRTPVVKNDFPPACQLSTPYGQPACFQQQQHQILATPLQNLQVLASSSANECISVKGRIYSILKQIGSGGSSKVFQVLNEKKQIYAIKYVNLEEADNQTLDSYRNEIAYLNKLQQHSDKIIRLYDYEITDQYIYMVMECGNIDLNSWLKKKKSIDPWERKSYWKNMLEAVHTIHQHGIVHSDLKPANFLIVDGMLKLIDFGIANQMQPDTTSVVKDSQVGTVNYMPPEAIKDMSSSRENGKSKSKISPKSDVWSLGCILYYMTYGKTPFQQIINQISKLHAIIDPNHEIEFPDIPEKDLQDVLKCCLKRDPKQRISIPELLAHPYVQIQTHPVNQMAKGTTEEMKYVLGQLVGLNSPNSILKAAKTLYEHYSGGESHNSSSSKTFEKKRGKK
Method in brief: as §1

[4] = biological target: T4, MSK1(h) (Homo sapiens, UniProt O75582)
T4 construct: purchased Eurofins Discovery Services (KinaseProfiler)
T4 sequence (O75582 whole entry): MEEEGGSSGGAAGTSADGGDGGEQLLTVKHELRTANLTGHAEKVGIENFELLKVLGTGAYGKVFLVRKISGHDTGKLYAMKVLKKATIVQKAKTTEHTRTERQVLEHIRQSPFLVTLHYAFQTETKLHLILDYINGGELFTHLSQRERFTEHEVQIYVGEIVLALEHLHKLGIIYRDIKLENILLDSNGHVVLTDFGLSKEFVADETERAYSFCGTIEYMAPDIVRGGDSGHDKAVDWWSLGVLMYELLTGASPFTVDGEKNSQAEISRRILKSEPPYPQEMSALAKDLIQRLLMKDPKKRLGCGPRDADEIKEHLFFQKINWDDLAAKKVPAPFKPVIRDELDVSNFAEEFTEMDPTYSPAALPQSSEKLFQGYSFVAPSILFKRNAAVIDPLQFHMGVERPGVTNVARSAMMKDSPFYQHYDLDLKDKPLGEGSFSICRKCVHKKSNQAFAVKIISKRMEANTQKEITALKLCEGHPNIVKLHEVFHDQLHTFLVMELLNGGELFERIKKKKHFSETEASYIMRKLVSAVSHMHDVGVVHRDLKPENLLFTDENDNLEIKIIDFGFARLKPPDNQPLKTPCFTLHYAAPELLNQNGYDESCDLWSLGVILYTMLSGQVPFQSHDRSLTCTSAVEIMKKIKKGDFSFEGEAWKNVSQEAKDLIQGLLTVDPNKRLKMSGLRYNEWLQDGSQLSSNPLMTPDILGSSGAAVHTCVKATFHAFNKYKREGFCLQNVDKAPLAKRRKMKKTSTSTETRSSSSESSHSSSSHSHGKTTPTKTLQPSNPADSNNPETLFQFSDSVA
Method in brief: as §1

[5] = biological target: T5, Met(Y1248D)(h) (Homo sapiens, UniProt P08581, Y1230D)
T5 construct: purchased Eurofins Discovery Services (KinaseProfiler)
Method in brief: as §1

[6] = biological target: T6, MEK1(h) (Homo sapiens, UniProt Q02750)
T6 construct: purchased Eurofins Discovery Services (KinaseProfiler)
Method in brief: as §1

[7] = biological target: T7, PKCμ(h) (Homo sapiens, UniProt Q15139)
T7 construct: purchased Eurofins Discovery Services (KinaseProfiler)
Method in brief: as §1

[8] = biological target: T8, Ros(h) (Homo sapiens, UniProt P08922)
T8 construct: purchased Eurofins Discovery Services (KinaseProfiler)
Method in brief: as §1

[9] = biological target: T9, EphA7(h) (Homo sapiens, UniProt Q15375)
T9 construct: purchased Eurofins Discovery Services (KinaseProfiler)
Method in brief: as §1

[10] = biological target: T10, MST1(h) (Homo sapiens, UniProt Q13043)
T10 construct: purchased Eurofins Discovery Services (KinaseProfiler)
T10 sequence (Q13043 whole entry): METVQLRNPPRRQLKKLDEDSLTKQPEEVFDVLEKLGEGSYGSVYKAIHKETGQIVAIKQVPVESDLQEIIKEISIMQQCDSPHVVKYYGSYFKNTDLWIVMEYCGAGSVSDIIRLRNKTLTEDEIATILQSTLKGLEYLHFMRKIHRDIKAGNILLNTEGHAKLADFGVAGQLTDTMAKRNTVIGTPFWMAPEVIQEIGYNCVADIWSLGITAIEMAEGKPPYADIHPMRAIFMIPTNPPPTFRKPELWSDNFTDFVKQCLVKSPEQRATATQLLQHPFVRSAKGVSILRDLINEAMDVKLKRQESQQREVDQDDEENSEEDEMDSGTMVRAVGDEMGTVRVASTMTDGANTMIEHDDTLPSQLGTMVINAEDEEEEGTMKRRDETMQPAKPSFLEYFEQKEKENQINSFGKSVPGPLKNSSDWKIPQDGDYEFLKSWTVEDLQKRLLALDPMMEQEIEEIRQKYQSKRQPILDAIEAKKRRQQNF
Method in brief: as §1

[11] = biological target: T11, BTK(R28H)(h) (Homo sapiens, UniProt Q06187, R28H)
T11 construct: purchased Eurofins Discovery Services (KinaseProfiler)
Method in brief: as §1

[12] = biological target: T12, NLK(h) (Homo sapiens, UniProt Q9UBE8)
T12 construct: purchased Eurofins Discovery Services (KinaseProfiler)
Method in brief: as §1

[13] = biological target: T13, CSK(h) (Homo sapiens, UniProt P41240)
T13 construct: purchased Eurofins Discovery Services (KinaseProfiler)
Method in brief: as §1

[14] = biological target: T14, TrkB(h) (Homo sapiens, UniProt Q16620)
T14 construct: purchased Eurofins Discovery Services (KinaseProfiler)
Method in brief: as §1

[15] = biological target: T15, PRP4(h) (Homo sapiens, UniProt Q13523)
T15 construct: purchased Eurofins Discovery Services (KinaseProfiler)
Method in brief: as §1

[16] = biological target: T16, Ret (V804L)(h) (Homo sapiens, UniProt P07949, V804L)
T16 construct: purchased Eurofins Discovery Services (KinaseProfiler)
Method in brief: as §1

[17] = biological target: T17, cKit(V560G)(h) (Homo sapiens, UniProt P10721, V560G)
T17 construct: purchased Eurofins Discovery Services (KinaseProfiler)
T17 sequence (P10721 26-976 V560G): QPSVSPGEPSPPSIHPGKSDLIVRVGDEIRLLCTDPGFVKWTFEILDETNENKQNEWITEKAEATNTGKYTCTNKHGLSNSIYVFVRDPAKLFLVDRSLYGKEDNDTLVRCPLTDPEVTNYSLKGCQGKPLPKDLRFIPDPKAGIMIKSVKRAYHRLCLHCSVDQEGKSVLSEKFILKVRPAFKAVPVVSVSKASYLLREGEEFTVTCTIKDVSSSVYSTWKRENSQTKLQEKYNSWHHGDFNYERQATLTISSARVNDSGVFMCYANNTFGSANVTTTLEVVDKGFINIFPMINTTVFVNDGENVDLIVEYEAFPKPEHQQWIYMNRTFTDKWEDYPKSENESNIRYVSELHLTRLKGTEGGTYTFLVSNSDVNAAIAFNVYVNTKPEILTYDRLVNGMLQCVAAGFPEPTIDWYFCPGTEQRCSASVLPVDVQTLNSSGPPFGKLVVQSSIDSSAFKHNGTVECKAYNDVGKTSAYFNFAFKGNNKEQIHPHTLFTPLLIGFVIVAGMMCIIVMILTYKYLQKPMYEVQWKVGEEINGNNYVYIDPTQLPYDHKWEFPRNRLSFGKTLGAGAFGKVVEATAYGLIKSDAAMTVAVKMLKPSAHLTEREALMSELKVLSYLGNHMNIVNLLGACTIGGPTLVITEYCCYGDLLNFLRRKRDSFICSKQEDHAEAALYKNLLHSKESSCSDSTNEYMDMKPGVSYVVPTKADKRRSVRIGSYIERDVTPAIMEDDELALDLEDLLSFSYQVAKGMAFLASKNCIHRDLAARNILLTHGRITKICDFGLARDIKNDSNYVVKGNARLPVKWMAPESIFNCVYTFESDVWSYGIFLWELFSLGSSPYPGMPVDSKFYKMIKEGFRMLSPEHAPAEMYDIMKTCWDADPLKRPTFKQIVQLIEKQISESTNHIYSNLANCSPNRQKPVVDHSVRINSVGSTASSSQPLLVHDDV
Method in brief: as §1

[18] = biological target: T18, GRK3(h) (Homo sapiens, UniProt P35626)
T18 construct: purchased Eurofins Discovery Services (KinaseProfiler)
Method in brief: as §1

[19] = biological target: T19, Fms(Y969C)(h) (Homo sapiens, UniProt P07333, Y969C)
T19 construct: purchased Eurofins Discovery Services (KinaseProfiler)
T19 sequence (P07333 20-972 Y969C): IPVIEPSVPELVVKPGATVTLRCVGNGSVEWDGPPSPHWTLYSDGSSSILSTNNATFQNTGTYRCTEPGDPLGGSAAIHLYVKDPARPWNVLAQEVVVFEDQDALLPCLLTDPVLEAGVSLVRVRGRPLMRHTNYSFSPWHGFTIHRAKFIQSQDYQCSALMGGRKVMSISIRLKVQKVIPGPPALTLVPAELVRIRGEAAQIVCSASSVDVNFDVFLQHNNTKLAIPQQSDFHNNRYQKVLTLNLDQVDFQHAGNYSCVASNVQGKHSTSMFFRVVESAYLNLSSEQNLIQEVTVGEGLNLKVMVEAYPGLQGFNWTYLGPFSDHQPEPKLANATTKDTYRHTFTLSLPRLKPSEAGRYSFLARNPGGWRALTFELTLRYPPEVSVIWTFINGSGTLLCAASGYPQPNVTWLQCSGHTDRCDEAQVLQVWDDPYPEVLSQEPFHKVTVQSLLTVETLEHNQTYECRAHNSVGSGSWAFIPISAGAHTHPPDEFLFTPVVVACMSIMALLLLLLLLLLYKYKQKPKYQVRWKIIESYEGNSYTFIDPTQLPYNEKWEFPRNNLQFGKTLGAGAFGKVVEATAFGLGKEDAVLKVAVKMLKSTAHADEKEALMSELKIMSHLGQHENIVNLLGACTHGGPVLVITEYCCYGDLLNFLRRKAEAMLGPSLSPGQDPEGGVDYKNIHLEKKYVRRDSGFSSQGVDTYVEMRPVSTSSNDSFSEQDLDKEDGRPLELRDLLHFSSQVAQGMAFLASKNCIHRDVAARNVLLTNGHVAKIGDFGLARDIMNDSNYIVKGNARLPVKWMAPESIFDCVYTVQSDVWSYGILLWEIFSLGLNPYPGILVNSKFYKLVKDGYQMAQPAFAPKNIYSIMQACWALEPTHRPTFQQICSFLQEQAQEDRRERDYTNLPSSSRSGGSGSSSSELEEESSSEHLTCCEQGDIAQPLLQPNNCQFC
Method in brief: as §1

[20] = biological target: T20, SAPK4(h) (Homo sapiens, UniProt O15264)
T20 construct: purchased Eurofins Discovery Services (KinaseProfiler)
Method in brief: as §1

[21] = biological target: T21, CK2α2(h) (Homo sapiens, UniProt P19784)
T21 construct: purchased Eurofins Discovery Services (KinaseProfiler)
Method in brief: as §1

[22] = biological target: T22, CDKL1(h) (Homo sapiens, UniProt Q00532)
T22 construct: purchased Eurofins Discovery Services (KinaseProfiler)
T22 sequence (Q00532 whole entry): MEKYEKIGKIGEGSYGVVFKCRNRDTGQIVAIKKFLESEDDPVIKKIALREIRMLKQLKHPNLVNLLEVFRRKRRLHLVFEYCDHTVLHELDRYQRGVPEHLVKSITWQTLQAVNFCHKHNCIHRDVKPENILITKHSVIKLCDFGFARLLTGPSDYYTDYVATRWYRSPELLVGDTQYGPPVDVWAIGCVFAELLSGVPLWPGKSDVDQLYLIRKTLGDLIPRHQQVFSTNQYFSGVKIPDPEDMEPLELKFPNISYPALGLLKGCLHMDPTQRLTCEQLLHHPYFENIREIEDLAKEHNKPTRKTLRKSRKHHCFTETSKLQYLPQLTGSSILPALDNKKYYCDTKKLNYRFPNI
Method in brief: as §1

[23] = biological target: T23, PRKG2(h) (Homo sapiens, UniProt Q13237)
T23 construct: purchased Eurofins Discovery Services (KinaseProfiler)
Method in brief: as §1

[24] = biological target: T24, Fer(h) (Homo sapiens, UniProt P16591)
T24 construct: purchased Eurofins Discovery Services (KinaseProfiler)
Method in brief: as §1

[25] = biological target: T25, CaMKIIβ(h) (Homo sapiens, UniProt Q13554)
T25 construct: purchased Eurofins Discovery Services (KinaseProfiler)
Method in brief: as §1

[26] = biological target: T26, MOK(h) (Homo sapiens, UniProt Q9UQ07)
T26 construct: purchased Eurofins Discovery Services (KinaseProfiler)
T26 sequence (Q9UQ07 whole entry): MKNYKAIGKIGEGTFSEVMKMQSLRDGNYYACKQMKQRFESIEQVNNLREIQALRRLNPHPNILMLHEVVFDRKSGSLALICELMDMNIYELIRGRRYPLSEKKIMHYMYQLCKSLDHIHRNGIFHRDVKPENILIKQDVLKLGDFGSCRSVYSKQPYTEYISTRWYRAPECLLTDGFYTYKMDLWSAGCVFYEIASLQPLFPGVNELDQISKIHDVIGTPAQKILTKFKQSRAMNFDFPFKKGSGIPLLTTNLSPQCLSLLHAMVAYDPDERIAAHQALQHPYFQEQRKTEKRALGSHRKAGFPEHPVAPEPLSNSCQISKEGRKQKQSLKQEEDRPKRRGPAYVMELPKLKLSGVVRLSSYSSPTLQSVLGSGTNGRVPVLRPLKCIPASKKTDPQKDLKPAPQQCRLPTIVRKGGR
Method in brief: as §1

[27] = biological target: T27, PKCβI(h) (Homo sapiens, UniProt P05771)
T27 construct: purchased Eurofins Discovery Services (KinaseProfiler)
Method in brief: as §1

[28] = biological target: T28, MELK(h) (Homo sapiens, UniProt Q14680)
T28 construct: purchased Eurofins Discovery Services (KinaseProfiler)
Method in brief: as §1

[29] = biological target: T29, Plk1(h) (Homo sapiens, UniProt P53350)
T29 construct: purchased Eurofins Discovery Services (KinaseProfiler)
Method in brief: as §1

[30] = biological target: T30, cSRC(h) (Homo sapiens, UniProt P12931)
T30 construct: purchased Eurofins Discovery Services (KinaseProfiler)
Method in brief: as §1

[31] = biological target: T31, CLK1(h) (Homo sapiens, UniProt P49759)
T31 construct: purchased Eurofins Discovery Services (KinaseProfiler)
Method in brief: as §1

[32] = biological target: T32, CaMKI(h) (Homo sapiens, UniProt Q14012)
T32 construct: purchased Eurofins Discovery Services (KinaseProfiler)
Method in brief: as §1

[33] = biological target: T33, TSSK3(h) (Homo sapiens, UniProt Q96PN8)
T33 construct: purchased Eurofins Discovery Services (KinaseProfiler)
Method in brief: as §1

[34] = biological target: T34, CDKL2(h) (Homo sapiens, UniProt Q92772)
T34 construct: purchased Eurofins Discovery Services (KinaseProfiler)
Method in brief: as §1

[35] = biological target: T35, mTOR/FKBP12(h) (Homo sapiens, UniProt P42345)
T35 construct: purchased Eurofins Discovery Services (KinaseProfiler)
Method in brief: as §1

[36] = biological target: T36, EphA3(h) (Homo sapiens, UniProt P29320)
T36 construct: purchased Eurofins Discovery Services (KinaseProfiler)
Method in brief: as §1

[37] = biological target: T37, TAK1(h) (Homo sapiens, UniProt O43318)
T37 construct: purchased Eurofins Discovery Services (KinaseProfiler)
Method in brief: as §1

**Q.** Which results are given for COc1cc(OC)cc(N(CCN[C@H](C)CO)c2ccc3ncc(-c4cnn(C)c4)c(=O)n3c2)c1 [RK-019, (R)-7-((3,5-dimethoxyphenyl) (2-((1-hydroxypropan-2-yl)amino)ethyl)amino)-3-(1-methyl-1H-pyrazol-4-yl)-4H-pyrido [1,2-a]pyrimidin-4-one]?
**A.** activity at 1 µM [1]: 70%; activity at 1 µM [2]: 85%; activity at 1 µM [3]: 98%; activity at 1 µM [4]: 95%; activity at 1 µM [5]: 103%; activity at 1 µM [6]: 79%; activity at 1 µM [7]: 107%; activity at 1 µM [8]: 101%; activity at 1 µM [9]: 108%; activity at 1 µM [10]: 121%; activity at 1 µM [11]: 83%; activity at 1 µM [12]: 86%; activity at 1 µM [13]: 94%; activity at 1 µM [14]: 94%; activity at 1 µM [15]: 90%; activity at 1 µM [16]: 92%; activity at 1 µM [17]: 14%; activity at 1 µM [18]: 123%; activity at 1 µM [19]: 31%; activity at 1 µM [20]: 112%; activity at 1 µM [21]: 105%; activity at 1 µM [22]: 97%; activity at 1 µM [23]: 100%; activity at 1 µM [24]: 127%; activity at 1 µM [25]: 80%; activity at 1 µM [26]: 97%; activity at 1 µM [27]: 102%; activity at 1 µM [28]: 104%; activity at 1 µM [29]: 117%; activity at 1 µM [30]: 54%; activity at 1 µM [31]: 104%; activity at 1 µM [32]: 101%; activity at 1 µM [33]: 102%; activity at 1 µM [34]: 110%; activity at 1 µM [35]: 92%; activity at 1 µM [36]: 60%; activity at 1 µM [37]: 102%
